Laboratory results: patent US10213449B2, “Compositions and methods for treating medulloblastoma” (The Board of Trustees of the Leland Stanford Junior …, priority 2016, dated 2019)
“Also recorded” adds a separate entry of the source.

Columns and labels:
[1] = test system: Hh signaling in NIH 3T3s stimulated with SAG; assay: RT-qPCR of Gli1 in NIH 3T3s stimulated with SAG (epistasis study); format: cell-based, mouse; conditions: NIH 3T3s stimulated with SAG; dose-responsive
Description: (§1) Epistasis studies were next performed to determine where in the hedgehog pathway CK2 acts. The effect of TBB was examined: (i) in NIH 3T3s stimulated with SAG, a SMO agonist, (ii) in Sufu−/− mouse embryonic fibroblasts (MEF), and (iii) in NIH 3T3 cells overexpressing GLI2 (FIG. 3d-3f).
NIH3T3s or SUFU−/− MEFs were plated in 6 well plates at 400,000 cells/well in 10% FBS media constituted of DMEM (Invitrogen11960-069) supplemented with 10% FBS (Hyclone Labs SH30070.02), pen/strep (Life Technologies 15140-122), sodium pyruvate (Invitrogen 11360-070) and glutamax (Invitrogen 35050-061). Cells were then starved in 0.5% FBS for 24 h prior to treatment with 25% ShhN conditioned media in 0.5% FBS+/− drug treatment. GliΔN were treated 48 h post transfection. Unless otherwise stated, all treatments were performed for 6 h. Cell lysis and RNA extraction was performed using Qiashredder homogenizers (Qiagen 79654) and RNEasy mini kits (qiagen 74104) as per manufacturer's instructions. RNA was quantified on a nanodrop spectrophotometer (nanoddrop technologies ND-2000C). Transcript quantification was performed using a TaqMan RNA-to-Ct 1-Step Kit (Life technologies, 4392656) and the Applied Biosystems 7500 RT-PCR system as per the manufacturer's instructions. […]

[2] = test system: Ptch+/−; Tpr53−/−; SmoD477G MB flank allografts; assay: Flank allograft study, SMO inhibitor-resistant MB; format: in vivo, mouse
Description: In vivo efficacy studies were performed in accordance with protocols approved by the Institutional Animal Care and Use Committee at Stanford University. SmoWT-MB and Smo[…]-MB cells isolated from either parental SmoWT or Smo[…] mouse Ptch^+/-; p53^-/- MB hind-flank allografts were kindly provided by Charles Rudin (Memorial Sloan-Kettering Cancer Center). Ptch+/-; Tpr53-/-, or, Ptch+/-; Tpr53-/-; Smo[…] MB cells were mixed 1:1 with matrigel and 10^7 cells were injected into both flanks of a Nu/Nu mouse. Once tumors reached 225-275 mm^3, mice were randomized to treatment vs. control groups. Treatment groups received 30 mg/kg IP BID of TBB (reconstituted in DMSO at 50 ug/uL), or 37.5 mg/kg IP BID of GDC-0449 (reconstituted in DMSO at 62.5 ug/uL). Control mice were treated with an equivalent volume of DMSO. Corn oil was used in all groups to a total volume of 180 uL/injection and all doses were given with a 28 g insulin syringe. Tumors were measured and mice were weighed daily. Once tumors reached 1.5 cm^2 or met institutional euthanasia criteria, mice were sacrificed and tumors were harvested. Growth curves were generated using GraphPad Prism and significance was measured by two-way ANOVA.

[3] = test system: Gli2; assay: Gli2 stability; format: cell-based, mouse
Description: as §1
Gli2ΔN cells were lysed with RIPA buffer (sc-24948, Santa Cruz Biotechnology) supplemented with Halt Protease & Phosphatase Inhibitor (Thermo #1861218) for 30 min on ice and lysates were cleared by centrifugation at 13000 rpm, 15 min at 4° C. Supernatants were incubated with 6× Lamelli sample buffer (10570021-1, BioWorld) at 95° C. for 5 min. The samples were then separated with a 7% SDS-PAGE gel and immunoblotted with anti-Gli2 (AF3635-SP, R&D) and anti-β-tubulin (ab6046, Abcam).

Brc1c(Br)c(Br)c2[nH]nnc2c1Br [TBB, 4,5,6,7-tetrabromo-2H-benzotriazole]
Gli1 mRNA levels (effect of inhibitor) [1]: substantially decreased; also recorded: dose dependent loss of Gli1 expression
tumor growth of SmoD477G MB flank allografts ([2]; TBB 30 mg/kg IP BID or GDC-0449 37.5 mg/kg IP BID vs vehicle control): near-complete cessation of tumor growth; also recorded: significant response
BrdU incorporation in flank allografts ([2]; following TBB administration, relative to GDC-0449 and control treated mouse): Decreased
GLI2 protein driven off the CMV promoter-expression vector ([3]; Gli2ΔN cells after TBB treatment): no decrease
endogenous, full length Gli2 mRNA levels ([3]; after TBB treatment): decreases
